Laboratory results reported in patent US20070077583A1, “Alpha enolase-directed diagnostics and therapeutics for cancer and chemotherapeutic drug resistance” (Aurelium BioPharma, Inc., priority 2005, published 2007).
Entries after “also recorded” stand apart in the source; their conditions may differ.

Tests used:
[1] = test system: A549 cells; assay: Cell adhesion assay on collagen-coated plates; type: cell-based, human; conditions: A549 cells vs normal α-enolase levels
Experimental: Cell adhesion assays were performed using an MTT-based cell assay, as described in FIGS. 8C and 8D. […] The attachment of cells to the surface of the well was counted and a proportion of cells that attached to the surface during the experimental period was determined.

[2] = test system: H460 cells; assay: MTT cytotoxicity assay, H460 cells transfected with α-enolase siRNA; type: cell-based, human
Experimental: To establish the effectiveness of α-enolase silencing on other cancer cell types, H460 non-small cell lung cancer cells were challenged with a chemotherapeutic drug, MTT cytotoxicity assays were carried out and survival curves plotted as shown in FIG. 17.

[3] = test system: MDA-435 cells; assay: Annexin-V FITC staining, MDA-435; type: cell-based, human
Experimental: (§1) The effect of Eno-1 siRNA silencing on tumor cell growth was even more dramatic in the MDA-435 breast cancer cells, where the viability in cells that were transfected with Eno-1 siRNA dropped to only about 17% of the control level (FIG. 40). In these cells the levels of silencing of α-enolase were also quite high, reaching 14% of the α-enolase levels present in the control transfected cells 6 days post-transfection (FIG. 41).
(§2) Apoptotic cells were measured following incubation with siRNAs. This assay was performed to determine the number of cells that were now susceptible to chemotherapeutic drugs. Cells transfected with siRNA were seeded in Lab-Tek 16-well chamber slides (Electron Microscopy Sciences, Hatfield, Pa.) at 10^4 cells/well 48 hrs post-transfection. Apoptosis was determined 16 hours later by annexin-V staining using the Annexin-V FLUOS kit (Roche, Ltd., Basel, CH) following the manufacturer's instructions. Slides were observed under a fluorescence microscope and images were taken using an Olympus digital camera and the Q-Capture software (QImaging, Burnaby, BC, CA).

[4] = test system: MCF-7 cells; assay: Clonogenic assay, MCF-7 cells; type: cell-based, human; conditions: adriamycin-resistant MCF-7 cells, without drug
Experimental: Utilizing a clonogenic assay generated additional information concerning cell viability after drug-resistant cells were exposed to siRNA and chemotherapeutics. […] Taxol or Vincristine was added at IC10 or IC50 concentrations determined from MTT experiments for MCF-7 cells. […] The cells were further incubated for an additional 7 days. At the end of the incubation, the cells were stained with addition of a 0.5% Methylene Blue solution in 50% ethanol for 15 min. at RT. The staining solution was then removed and plates were dried overnight. The plates were scanned and the stained colonies were solubilized in 0.1% SDS. The absorbance of the resulting solution was determined by spectrophotometry at 660 nm.

[5] = test system: HUVEC cells; assay: HUVEC capillary tube formation on Matrigel; type: cell-based
Experimental: Transfected cells were then subjected to an angiogenesis assay to determine the effect of α-enolase on capillary tube formation. Briefly, Matrigel-coated 24-well culture plates (BD Biosciences, Rockville, Md.) were thawed at 4° C. overnight. The Matrigel was allowed to solidify for 1 hr at 37° C. α-enolase-1-directed siRNA or control siRNA silenced HUVEC cells were subsequently seeded onto the Matrigel-coated wells at a density of 40,000 cells per well in the absence of endothelial cell growth factors. Taxol was added to selected wells at 2 nM final concentration. The cells were allowed to differentiate overnight at 37° C., and were photographed after 5-6 and 16 hours using Q-Capture software under an Olympus fluorescence microscope.

[6] = test system: MDA-435 breast cancer cells; assay: BrdU incorporation DNA synthesis, MDA-435; type: cell-based, human; conditions: MDA-435 cells
Text: as §1

[7] = test system: MCF-7 and MDA-231 breast cancer cells; assay: BrdU incorporation cell proliferation assay, MCF-7 and MDA-231; type: cell-based, human; conditions: MCF-7 and MDA-231 cells
Experimental: A determinant of cell division and viability, pre-requisites for angiogenesis, was assayed by BrdU incorporation in two breast cancer cell lines.

[8] = test system: A549 cells; assay: Transwell filter cell invasion assay, A549; type: cell-based, human
Experimental: Transwell filter chamber assays were performed using a Chemicon QCM 96-well invasion kit according to the manufacturer's instructions (Chemicon International, Inc., Temecula, Calif.). Eno-1 and control siRNA transfected cells were harvested 2 days post-transfection, resuspended in media without serum and seeded in 96-well Matrigel-coated transwell filter plates at 50,000 cells per well. Medium with 10% serum was used as a chemo-attractant in a feeder tray. The inserts were placed into the feeder tray, and the cells were subsequently incubated for 16 hours at 37° C. in an incubator containing a 5% CO2 atmosphere. Cells that invaded through the filter to the bottom tray were quantitated using the CyQUANT-GR dye according to the manufacturer's instructions (Molecular Probes, Eugene, Oreg.).
These assays test the ability of a cell to move across membranes, which is a hallmark of metastatic potential. To confirm the results shown in FIGS. 27A and 27B, the highly metastatic cell line MDA-MB-435 was transfected with a vector expressing the α-enolase siRNA and subjected to the transwell filter assay (FIGS. 28 and 29, respectively).

[9] = test system: MCF-7 cells; assay: Annexin-V apoptosis assay, MCF-7; type: cell-based, human; conditions: MCF-7 cells vs control siRNA
Experimental: as §2

[10] = test system: SW-480 cells; assay: cells; type: cell-based, human
Experimental: The colorectal adenocarcinoma cell line SW-480 was treated with α-enolase-directed siRNA using the procedures described above.

[11] = test system: MDA-435 cells; assay: cells; type: cell-based, human
Experimental: Similar tests utilizing α-enolase siRNA were performed on MDA-435 breast adenocarcinoma cells. Chemosensitivity to various drugs was determined for the MDA-435 cells as described above.

α-enolase siRNA: siRNA duplex targeting human α-enolase mRNA; sense 5′-GGCUGUUGAGCACAUCAAUtt-3′ (SEQ ID NO: 1), antisense SEQ ID NO: 2; Ambion (antisense AUUGAUGUGCUCAACAGCC; bought from Ambion, sense has tt overhang, further chemistry not given here)
increase of cell adhesion to collagen-coated plates [1]: 40% | cell viability after siRNA alone [2]: less viable | apoptosis by annexin-V FITC staining [3]: increase in apoptosis | viability less than that of siRNA untreated cells [4]: 65% | capillary tube formation on Matrigel [5]: inhibited from forming capillary tubes | decrease in DNA synthesis [6]: 50% | decrease in cell proliferation rates (BrdU) [7]: 40-50% | invasion across membranes [8]: reduced the invasion | Annexin-V positive cells [9]: Annexin-V positive cells were detected; also recorded: substantial amount of Annexin-V-positive cells | decrease in cell viability [10]: 50% | cell viability, of the control level [11]: about 17%
